According to article PMC5438973 (Frontiers in Psychiatry, 2017):
Values joined by “and” are separate entries in the source; they are usually repeats but may differ in a detail not shown here. Equal entries are not always repeated.

Tests used:
Male, Wistar rats [1] = experiment: Schedule-induced polydipsia; assay type: in vivo, rat; settings: for Decrease of excessive water consumption: sc
From the text: Rats were used in these experiments as they have been utilized for such studies in the past with great success in generating significant polydipsia ([16]). Male, Wistar rats were singly housed, and maintained at approximately 85% of their free-feeding weights with free access to water. Twelve adult male, Wistar rats (Harlan Industries, Indianapolis, IN, USA) were used. They were allowed to acclimate to our vivarium for at least 3 days prior to testing. They were 2 months old at the start of the experiments that lasted approximately 6–8 months and were without explicit experimental experience prior to this study. The rats were singly housed, and maintained at approximately 86–91% of their free-feeding weights with post session supplemental feeding of Lab Diet #5001 for rodents (PMI Nutrition International Inc., St. Louis, MO, USA). Body weights were corrected for the normal growth curve of Wistar rats such that actual body weight of each rat increased over the experimental time frame. Water was available continuously in the individual home cages. Rats were inspected daily 7 days/week by experimenters and veterinary staff.
The experiments were conducted using operant behavior test chambers ENV-007 (Med Associates Inc., Georgia, VT, USA), 30.5 cm × 24.1 cm × 29.2 cm. The test chambers were contained within light and sound attenuating shells. A food trough was mounted 2 cm off the grid floor on the centerline. Two response levers were centered 8 cm off the centerline and 7 cm off the grid floor. Three lights were located above each response lever at 15 cm off the grid floor. All events were controlled and lever-press data were recorded by a Compaq computer running MED-PC Version IV (Med Associates Inc., Georgia, VT, USA). The water bottle located within each chamber was weighed before and after experimental sessions.
Experimental sessions lasted 90 min. Test compounds or drug vehicle were administered on Tuesdays and Fridays, given the stability of performance (within 15% variation of the individual animal). Non-injection, control performances were on Thursdays. […] Dose-effect curves and drug interaction data were created by repeated testing in groups of five to eight rats. Test compounds were administered as described in figure legends. The effects of the compound are expressed as a percent of control for each individual animal. Results were analyzed by ANOVA followed by Dunnett’s multiple comparison (p < 0.05).
Thus, in keeping with the guidelines of animal care and use followed here, we utilized the minimum number of animals required for signal detection.

D5 = target: T1, D5 (Homo sapiens, UniProt P21918); experiment: CEREP broad receptor screening panel; assay type: binding; settings: CPD 1 10 µM (table title), duplicate
T1 construct: CEREP
Method: (§1) Additional selectivity assessment of CPD 1 was performed at CEREP. Methods are available for the multiple assays utilized at http://www.cerep.fr/cerep/users/pages/catalog/assay/catalog.asp. The specific ligand binding to the receptors is defined as the difference between the total binding and the non-specific binding determined in the presence of an excess of unlabeled ligand.

H2 = target: T2, H2 (Homo sapiens, UniProt P25021); experiment: CEREP broad receptor screening panel; assay type: binding; settings: CPD 1 10 µM (table title), duplicate
T2 construct: CEREP
Method: as §1

β2 = target: T3, β2 (Homo sapiens, UniProt P07550); experiment: CEREP broad receptor screening panel; assay type: binding; settings: CPD 1 10 µM (table title), duplicate
T3 construct: CEREP
Method: as §1

D3 = target: T4, D3 (Homo sapiens, UniProt P35462); experiment: CEREP broad receptor screening panel; assay type: binding; settings: CPD 1 10 µM (table title), duplicate
T4 construct: CEREP
Method: as §1

M3 = target: T5, M3 (Homo sapiens, UniProt P20309); experiment: CEREP broad receptor screening panel; assay type: binding; settings: CPD 1 10 µM (table title), duplicate
T5 construct: CEREP (contract screening)
Method: as §1

h5-HT1F = target: T6, h5-HT1F (Homo sapiens, UniProt P30939); experiment: Radioligand binding, human cloned h5-HT1F; settings: agonist radioligand, read-out: Affinity, Mean
T6 construct: expressed in transfected cells
Method: (§2) Binding affinities at the serotonin receptors were determined by standard radioligand-binding methods using human cloned receptors as reported in the literature ([14], [15]).

h5-HT2C [2] = target: T7, h5-HT2C (Homo sapiens, UniProt P28335); experiment: Radioligand binding, human cloned h5-HT2C; settings: agonist radioligand, read-out: Affinity, Mean
T7 construct: expressed in transfected cells; host or cells: AV12 cells
Method: as §2

h5-HT2B [3] = target: T8, h5-HT2B (Homo sapiens, UniProt P41595); experiment: Radioligand binding, human cloned h5-HT2B
T8 construct: expressed in transfected cells; host or cells: AV12 cells
Method: as §2

α1 = experiment: CEREP broad receptor screening panel; assay type: binding; parameters: dose or concentration left out as unconfirmed; settings: CPD 1 (table title), duplicate
Method: as §1

L-Verapamil site = experiment: CEREP broad receptor screening panel; assay type: binding; parameters: dose or concentration left out as unconfirmed; settings: CPD 1 (table title), duplicate
Method: as §1

Male, Wistar rats [4] = experiment: Isoproterenol-induced drinking; assay type: in vivo, rat; settings: 5.6 mg/kg
Method: Male, Wistar rats (different from those rats used in the schedule-induced polydipsia studies) were used. They were 331 ± 11 g at the initiation of this study. Compound 1 (5.6 mg/kg, s.c.) was evaluated for its ability to reduce drinking. (±)-isoproterenol (30 μg/kg, s.c.) was given to induce drinking (n = 5–20 rat/group). Ten minutes after vehicle or (±)-isoproterenol injection, rats were given either vehicle or Compound 1 and a 60 min session began in which the rats in individual housing cages were given access to water 20 min after the second injection. The weight of the water bottle before and after the 60 min period was measured to the nearest 0.1 g. After the experiment, the animals were returned to their living cages with continuous access to food and water.

h5-HT2A = target: T9, h5-HT2A (Homo sapiens, UniProt P28223); experiment: GTP-γ-[35S] functional assay (SPA), AV12 cells; assay type: biochemical
T9 construct: expressed in transfected cells; host or cells: AV12 cells
From the text: (§3) 5-HT2 receptors are functionally coupled to specific G-proteins. Agonist activation of 5-HT2 G-protein coupled receptors results in the release of GDP from alpha-subunit (G alpha q or G alpha i) of the G-protein and the subsequent binding of GTP. The binding of the stable analog GTP-g-[^35S] is an indicator of receptor activation. Human cloned 5-HT2A, −2B, and −2C receptors were expressed in AV12 cells. GTP-g-[^35S] nucleotide exchange scintillation proximity assay (SPA) was used to measure binding as previously described ([14]).

h5-HT2C [5] = target: T7, h5-HT2C; experiment: GTP-γ-[35S] functional assay (SPA), AV12 cells; assay type: biochemical
From the text: as §3

h5-HT2B [6] = target: T8, h5-HT2B; experiment: GTP-γ-[35S] functional assay (SPA), AV12 cells; assay type: biochemical
From the text: as §3

h5-HT7 = target: T10, h5-HT7 (Homo sapiens, UniProt P34969); experiment: Radioligand binding, human cloned h5-HT7
T10 construct: expressed in transfected cells
Method: as §2

[7] = 10 mg/kg, five consecutive days
[8] = GTPgs functional assay, human recombinant cell line

T9 sequence (P28223 whole entry): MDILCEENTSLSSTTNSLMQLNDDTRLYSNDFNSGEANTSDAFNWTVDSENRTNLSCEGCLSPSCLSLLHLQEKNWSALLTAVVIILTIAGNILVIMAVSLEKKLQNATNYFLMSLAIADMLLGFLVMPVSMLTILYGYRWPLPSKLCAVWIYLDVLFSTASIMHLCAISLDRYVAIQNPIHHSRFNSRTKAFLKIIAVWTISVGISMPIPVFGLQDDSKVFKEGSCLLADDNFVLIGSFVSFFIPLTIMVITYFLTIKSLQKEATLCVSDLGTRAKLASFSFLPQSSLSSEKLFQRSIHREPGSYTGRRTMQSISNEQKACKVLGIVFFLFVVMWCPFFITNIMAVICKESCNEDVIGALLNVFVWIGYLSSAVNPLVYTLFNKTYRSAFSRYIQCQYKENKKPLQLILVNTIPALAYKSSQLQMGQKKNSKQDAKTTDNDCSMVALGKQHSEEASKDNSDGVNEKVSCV
T8 sequence (P41595 whole entry): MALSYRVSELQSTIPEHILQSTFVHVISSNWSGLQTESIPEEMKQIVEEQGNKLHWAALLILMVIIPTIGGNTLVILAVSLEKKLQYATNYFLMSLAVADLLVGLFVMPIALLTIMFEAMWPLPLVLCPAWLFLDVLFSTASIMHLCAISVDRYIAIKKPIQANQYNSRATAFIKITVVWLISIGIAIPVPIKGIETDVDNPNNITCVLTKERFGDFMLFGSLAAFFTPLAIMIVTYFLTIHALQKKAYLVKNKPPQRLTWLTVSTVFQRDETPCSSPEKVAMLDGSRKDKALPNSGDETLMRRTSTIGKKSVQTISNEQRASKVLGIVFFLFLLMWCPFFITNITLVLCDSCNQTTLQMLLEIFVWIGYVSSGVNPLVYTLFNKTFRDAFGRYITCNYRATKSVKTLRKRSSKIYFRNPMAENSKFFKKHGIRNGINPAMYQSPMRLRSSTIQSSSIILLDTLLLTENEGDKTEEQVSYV
T7 sequence (P28335 33-458): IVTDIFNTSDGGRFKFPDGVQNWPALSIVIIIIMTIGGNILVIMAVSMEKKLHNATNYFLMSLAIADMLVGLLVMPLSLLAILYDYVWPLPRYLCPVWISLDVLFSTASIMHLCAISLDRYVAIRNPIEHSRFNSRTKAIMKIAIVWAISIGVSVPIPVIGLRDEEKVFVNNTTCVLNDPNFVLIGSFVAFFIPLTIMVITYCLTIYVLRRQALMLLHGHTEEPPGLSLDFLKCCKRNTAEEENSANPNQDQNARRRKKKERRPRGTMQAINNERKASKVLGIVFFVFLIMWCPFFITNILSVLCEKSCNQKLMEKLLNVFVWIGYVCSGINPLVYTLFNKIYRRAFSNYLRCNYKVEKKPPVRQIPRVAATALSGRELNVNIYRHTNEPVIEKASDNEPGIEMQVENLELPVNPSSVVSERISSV
T10 sequence (P34969 whole entry): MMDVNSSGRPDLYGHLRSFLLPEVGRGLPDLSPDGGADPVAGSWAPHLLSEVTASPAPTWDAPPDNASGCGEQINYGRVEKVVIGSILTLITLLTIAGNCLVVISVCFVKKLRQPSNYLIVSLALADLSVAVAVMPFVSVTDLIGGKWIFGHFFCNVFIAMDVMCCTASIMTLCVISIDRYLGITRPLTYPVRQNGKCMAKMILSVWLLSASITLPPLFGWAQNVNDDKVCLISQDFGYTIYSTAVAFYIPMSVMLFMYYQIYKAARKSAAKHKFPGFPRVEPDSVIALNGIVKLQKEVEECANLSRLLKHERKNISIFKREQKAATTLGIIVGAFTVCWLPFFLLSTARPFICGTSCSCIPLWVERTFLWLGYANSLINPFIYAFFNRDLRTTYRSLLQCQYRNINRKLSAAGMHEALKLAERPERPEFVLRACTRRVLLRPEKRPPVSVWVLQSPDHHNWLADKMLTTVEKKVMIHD
T5 sequence (P20309 whole entry): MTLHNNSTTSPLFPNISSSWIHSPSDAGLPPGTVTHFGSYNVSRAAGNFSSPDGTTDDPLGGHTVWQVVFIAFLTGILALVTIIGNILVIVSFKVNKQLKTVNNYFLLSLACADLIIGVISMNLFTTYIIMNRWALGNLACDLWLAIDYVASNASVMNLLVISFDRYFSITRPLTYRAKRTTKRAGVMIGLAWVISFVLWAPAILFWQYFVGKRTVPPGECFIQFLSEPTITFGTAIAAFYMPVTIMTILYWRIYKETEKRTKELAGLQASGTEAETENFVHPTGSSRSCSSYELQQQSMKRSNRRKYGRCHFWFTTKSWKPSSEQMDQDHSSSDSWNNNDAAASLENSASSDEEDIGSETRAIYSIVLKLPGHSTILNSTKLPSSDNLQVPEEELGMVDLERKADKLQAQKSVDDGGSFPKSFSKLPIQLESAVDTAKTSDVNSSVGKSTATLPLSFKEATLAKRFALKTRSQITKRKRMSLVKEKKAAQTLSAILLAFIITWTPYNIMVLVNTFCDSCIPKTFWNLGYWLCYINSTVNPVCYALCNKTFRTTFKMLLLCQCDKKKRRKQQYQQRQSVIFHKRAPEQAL
T6 sequence (P30939 whole entry): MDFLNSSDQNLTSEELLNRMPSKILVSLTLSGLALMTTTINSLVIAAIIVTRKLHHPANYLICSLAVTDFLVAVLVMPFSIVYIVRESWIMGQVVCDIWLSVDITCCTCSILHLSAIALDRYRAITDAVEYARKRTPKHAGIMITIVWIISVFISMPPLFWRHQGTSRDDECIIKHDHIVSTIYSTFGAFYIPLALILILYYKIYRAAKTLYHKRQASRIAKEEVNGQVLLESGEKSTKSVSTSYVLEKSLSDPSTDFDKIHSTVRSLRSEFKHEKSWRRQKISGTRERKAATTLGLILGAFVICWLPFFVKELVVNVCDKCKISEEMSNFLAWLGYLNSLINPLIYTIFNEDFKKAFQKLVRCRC
T3 sequence (P07550 whole entry): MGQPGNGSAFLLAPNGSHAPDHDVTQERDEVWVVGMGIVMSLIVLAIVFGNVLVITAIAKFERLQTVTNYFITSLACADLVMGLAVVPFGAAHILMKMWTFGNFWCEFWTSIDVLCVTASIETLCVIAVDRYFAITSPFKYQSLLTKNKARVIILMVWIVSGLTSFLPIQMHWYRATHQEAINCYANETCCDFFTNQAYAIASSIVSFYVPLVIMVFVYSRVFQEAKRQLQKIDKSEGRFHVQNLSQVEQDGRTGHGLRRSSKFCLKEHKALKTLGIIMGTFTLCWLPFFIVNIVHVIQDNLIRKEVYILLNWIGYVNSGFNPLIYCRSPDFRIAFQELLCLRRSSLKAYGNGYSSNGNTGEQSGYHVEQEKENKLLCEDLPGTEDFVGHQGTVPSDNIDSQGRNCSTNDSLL
T2 sequence (P25021 whole entry): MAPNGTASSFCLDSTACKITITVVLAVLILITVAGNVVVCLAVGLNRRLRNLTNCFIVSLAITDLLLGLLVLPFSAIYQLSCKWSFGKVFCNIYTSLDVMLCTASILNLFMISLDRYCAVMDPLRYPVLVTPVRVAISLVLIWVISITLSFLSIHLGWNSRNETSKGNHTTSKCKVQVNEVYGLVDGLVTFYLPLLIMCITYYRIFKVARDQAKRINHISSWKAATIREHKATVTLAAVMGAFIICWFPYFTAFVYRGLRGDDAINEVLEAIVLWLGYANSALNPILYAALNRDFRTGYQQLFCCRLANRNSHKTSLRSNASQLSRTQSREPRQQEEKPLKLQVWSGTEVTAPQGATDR
T4 sequence (P35462 whole entry): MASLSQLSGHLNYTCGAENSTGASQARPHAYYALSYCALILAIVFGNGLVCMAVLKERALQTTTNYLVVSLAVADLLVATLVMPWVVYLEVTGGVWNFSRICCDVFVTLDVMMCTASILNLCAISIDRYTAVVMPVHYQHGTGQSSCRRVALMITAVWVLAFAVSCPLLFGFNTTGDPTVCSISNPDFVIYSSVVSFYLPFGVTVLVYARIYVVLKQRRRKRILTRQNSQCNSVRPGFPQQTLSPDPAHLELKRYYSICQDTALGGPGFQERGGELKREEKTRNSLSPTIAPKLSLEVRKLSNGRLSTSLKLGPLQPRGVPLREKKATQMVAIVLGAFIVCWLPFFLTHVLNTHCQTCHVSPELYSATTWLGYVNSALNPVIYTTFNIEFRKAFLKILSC
T1 sequence (P21918 whole entry): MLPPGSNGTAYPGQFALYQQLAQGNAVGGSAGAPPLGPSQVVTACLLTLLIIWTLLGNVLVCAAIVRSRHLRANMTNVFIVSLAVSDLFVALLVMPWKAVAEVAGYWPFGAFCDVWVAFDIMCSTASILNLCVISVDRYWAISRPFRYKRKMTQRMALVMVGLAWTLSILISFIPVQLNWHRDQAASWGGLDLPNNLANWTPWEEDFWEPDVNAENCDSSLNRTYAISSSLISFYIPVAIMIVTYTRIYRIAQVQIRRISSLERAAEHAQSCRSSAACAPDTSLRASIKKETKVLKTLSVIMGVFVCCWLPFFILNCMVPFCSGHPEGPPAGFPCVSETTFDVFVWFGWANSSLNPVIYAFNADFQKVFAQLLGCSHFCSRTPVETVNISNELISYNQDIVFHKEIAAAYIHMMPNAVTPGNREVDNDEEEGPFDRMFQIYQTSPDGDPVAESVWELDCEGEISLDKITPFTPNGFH

C[C@H]1CN(c2ccc(C(F)(F)F)c3ccoc23)CCN1 [CPD 1, (3S)-3-methyl-1-[4-(trifluoromethyl)-7-benzofuranyl]-piperazine]
Attenuation (tolerance) of the effect over 5 days (Male, Wistar rats [1]; [7]): not a significant attenuation
Effect on excessive water consumption over 5 days of dosing (Male, Wistar rats [1]; [7]): significantly decreased
Decrease of excessive water consumption (Male, Wistar rats [1]; CPD 1 5.6 mg/kg sc with MDL100907 0.1 mg/kg, 30 min prior): 65%
Decrease of excessive water consumption (Male, Wistar rats [1]; CPD 1 5.6 mg/kg, 20 min prior): 64%
Dose at which statistically significant reduction of excessive drinking was detected (Male, Wistar rats [1]; Dunnett p < 0.05): ≥ 3 mg/kg
Effect on excessive drinking / amount of water consumed (Male, Wistar rats [1]; given alone, acute dosing): dose-dependently suppressed
Effect on number of responses emitted (lever pressing for food) (Male, Wistar rats [1]; given alone, acute dosing): without affecting response output
inhibition at 10 µM (D5): 69%
inhibition at 10 µM (H2): 70%
inhibition at 10 µM (β2): 104%
inhibition at 10 µM (D3): 82%
inhibition at 10 µM (M3): 76%
Ki (h5-HT1F): 540 nM
Ki (h5-HT2C [2]): 2 nM and 2.11 nM
Ki (h5-HT2B [3]; agonist radioligand, h5-HT2B, read-out: Affinity, Mean): 104 nM
selectivity for h5-HT2C over h5-HT2B receptors (h5-HT2B [3]; binding affinities): 50 fold
% Inhibition (α1): 82%
% Inhibition (L-Verapamil site): 59%
Reduction of isoproterenol-induced drinking (Male, Wistar rats [4]; s.c.): 77%
Effect on normal drinking (Male, Wistar rats [4]; without isoproterenol): did not significantly affect
Functional activity (kind of agonism) (h5-HT2A; 5-HT2A): partial agonist
EC50 (h5-HT2A; [8]): 269 ± 19 nM
Emax (h5-HT2A; [8]): 53 ± 2%
Functional activity (kind of agonism) (h5-HT2C [5]; 5-HT2C): full agonist
EC50 (h5-HT2C [5]; [8]): 8.1 ± 0.5 nM
Emax (h5-HT2C [5]; [8]): 110 ± 1%
Functional activity (kind of agonism) (h5-HT2B [6]; 5-HT2B): partial agonist
EC50 (h5-HT2B [6]; [8]): 97 ± 23 nM
Emax (h5-HT2B [6]; [8]): 51%
Ki (h5-HT7; agonist radioligand, h5-HT7, read-out: Affinity, Mean): > 2000 nM
inhibition at 2 µM (h5-HT7; at a concentration of 2 µM): < 50%
